What was measured:
[1] = biological target: Angiopoietin-1 receptor (Homo sapiens) (UniProt Q02763); experiment: TEK tyrosine kinase, endothelial Millipore kinase panel; conditions: Compound concentration 10.0 uM
[2] = biological target: Tyrosine-protein kinase Fyn (Homo sapiens) (UniProt P06241); experiment: FYN oncogene related to SRC, FGR, YES Millipore kinase panel; conditions: Compound concentration 10.0 uM
[3] = biological target: Mitogen-activated protein kinase 9 (Homo sapiens) (UniProt P45984); experiment: mitogen-activated protein kinase 9 Millipore kinase panel; conditions: Compound concentration 10.0 uM
[4] = biological target: P2X receptor (Rattus norvegicus) (UniProt P51579+P49653+P51578+Q64663+P47824+P51577+P49654); experiment: rP2X Cerep panel; type: protein assay; conditions: Compound concentration 10.0 uM
[5] = biological target: Vascular endothelial growth factor receptor 2 (Homo sapiens) (UniProt P35968); experiment: kinase insert domain receptor Millipore kinase panel; conditions: Compound concentration 10.0 uM
[6] = species on record: Rattus norvegicus; experiment: rBZD Cerep panel; conditions: Compound concentration 10.0 uM
[7] = biological target: Serine/threonine-protein kinase 24 (Homo sapiens) (UniProt Q9Y6E0); experiment: serine/threonine kinase 24 Millipore kinase panel; conditions: Compound concentration 10.0 uM
[8] = PPAR1C Cerep panel; conditions: Compound concentration 10.0 uM
[9] = biological target: Mitogen-activated protein kinase 12 (Homo sapiens) (UniProt P53778); experiment: mitogen-activated protein kinase 12 Millipore kinase panel; conditions: Compound concentration 10.0 uM
[10] = biological target: cAMP-dependent protein kinase catalytic subunit PRKX (Homo sapiens) (UniProt P51817); experiment: protein kinase, X-linked Millipore kinase panel; conditions: Compound concentration 10.0 uM
[11] = biological target: RAC-alpha serine/threonine-protein kinase (Homo sapiens) (UniProt P31749); experiment: v-akt murine thymoma viral oncogene homolog 1 Millipore kinase panel; conditions: Compound concentration 10.0 uM
[12] = biological target: cGMP-dependent protein kinase 1 (Homo sapiens) (UniProt Q13976); experiment: protein kinase, cGMP-dependent, type I Millipore kinase panel; conditions: Compound concentration 10.0 uM
[13] = biological target: cGMP-inhibited 3',5'-cyclic phosphodiesterase 3A (Homo sapiens, UniProt Q14432); experiment: hPDE3A PDE scan
[14] = biological target: Tyrosine-protein kinase SYK (Homo sapiens) (UniProt P43405); experiment: spleen tyrosine kinase Millipore kinase panel; conditions: Compound concentration 10.0 uM
[15] = biological target: Protein kinase C gamma type (Homo sapiens) (UniProt P05129); experiment: protein kinase C, gamma Millipore kinase panel; conditions: Compound concentration 10.0 uM
[16] = biological target: Insulin-like growth factor 1 receptor (Homo sapiens) (UniProt P08069); experiment: insulin-like growth factor 1 receptor Millipore kinase panel; conditions: Compound concentration 10.0 uM
[17] = biological target: Protein kinase C iota type (Homo sapiens) (UniProt P41743); experiment: protein kinase C, iota Millipore kinase panel; conditions: Compound concentration 10.0 uM
[18] = biological target: Alpha-1A adrenergic receptor (Rattus norvegicus) (UniProt P43140); experiment: rAa1 Cerep panel; conditions: Compound concentration 10.0 uM
[19] = biological target: Rhodopsin kinase GRK7 (Homo sapiens) (UniProt Q8WTQ7); experiment: G protein-coupled receptor kinase 7 Millipore kinase panel; conditions: Compound concentration 10.0 uM
[20] = biological target: Serine/threonine-protein kinase pim-3 (Homo sapiens) (UniProt Q86V86); experiment: pim-3 oncogene Millipore kinase panel; conditions: Compound concentration 10.0 uM
[21] = biological target: C-X-C chemokine receptor type 2 (Homo sapiens) (UniProt P25025); experiment: hBCXCR2 Cerep panel; conditions: Compound concentration 10.0 uM
[22] = biological target: Prostaglandin E2 receptor EP2 subtype (Homo sapiens) (UniProt P43116); experiment: hEP2 Cerep panel; conditions: Compound concentration 10.0 uM
[23] = species on record: Rattus norvegicus; experiment: rK channel Cerep panel; conditions: Compound concentration 10.0 uM
[24] = biological target: Serine/threonine-protein kinase 3 (Homo sapiens) (UniProt Q13188); experiment: serine/threonine kinase 3 Millipore kinase panel; conditions: Compound concentration 10.0 uM
[25] = biological target: Protein kinase C beta type (Homo sapiens) (UniProt P05771); experiment: protein kinase C, beta 1 Millipore kinase panel; conditions: Compound concentration 10.0 uM
[26] = biological target: Hepatocyte growth factor receptor (Homo sapiens) (UniProt P08581); experiment: met proto-oncogene Millipore kinase panel; conditions: Compound concentration 10.0 uM
[27] = biological target: T1, 5-hydroxytryptamine receptor 3A (Homo sapiens) (UniProt P46098); experiment: h5HT3 Cerep panel; conditions: Compound concentration 10.0 uM
T1 sequence (whole entry): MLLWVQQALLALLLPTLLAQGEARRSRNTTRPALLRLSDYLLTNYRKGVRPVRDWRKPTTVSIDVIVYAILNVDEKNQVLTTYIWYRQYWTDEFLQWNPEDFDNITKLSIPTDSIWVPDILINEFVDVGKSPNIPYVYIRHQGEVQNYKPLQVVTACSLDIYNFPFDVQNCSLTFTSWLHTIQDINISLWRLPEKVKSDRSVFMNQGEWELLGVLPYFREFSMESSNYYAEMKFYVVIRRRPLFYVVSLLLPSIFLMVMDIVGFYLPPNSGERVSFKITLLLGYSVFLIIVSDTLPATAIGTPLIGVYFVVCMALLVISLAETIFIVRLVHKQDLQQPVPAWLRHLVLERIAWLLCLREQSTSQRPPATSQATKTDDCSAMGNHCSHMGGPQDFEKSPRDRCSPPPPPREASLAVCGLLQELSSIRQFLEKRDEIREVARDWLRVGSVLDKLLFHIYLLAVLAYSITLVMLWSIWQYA

[28] = biological target: Rho-associated protein kinase 1 (Homo sapiens) (UniProt Q13464); experiment: Rho-associated, coiled-coil containing protein kinase 1 Millipore kinase panel; conditions: Compound concentration 10.0 uM
[29] = biological target: Mitogen-activated protein kinase kinase kinase 5 (Homo sapiens) (UniProt Q99683); experiment: mitogen-activated protein kinase kinase kinase 5 Millipore kinase panel; conditions: Compound concentration 10.0 uM
[30] = biological target: Prostaglandin E2 receptor EP4 subtype (Homo sapiens) (UniProt P35408); experiment: hEP4 Cerep panel; conditions: Compound concentration 10.0 uM
[31] = biological target: Mitogen-activated protein kinase kinase kinase kinase 1 (Homo sapiens) (UniProt Q92918); experiment: mitogen-activated protein kinase kinase kinase kinase 1 Millipore kinase panel; conditions: Compound concentration 10.0 uM
[32] = biological target: cGMP-specific 3',5'-cyclic phosphodiesterase (Homo sapiens, UniProt O76074); experiment: hPDE5A3 PDE scan
[33] = biological target: Dual specificity mitogen-activated protein kinase kinase 1 (Homo sapiens) (UniProt Q02750); experiment: mitogen-activated protein kinase kinase 1 Millipore kinase panel; conditions: Compound concentration 10.0 uM
[34] = biological target: Phosphorylase b kinase gamma catalytic chain, liver/testis isoform (Homo sapiens) (UniProt P15735); experiment: phosphorylase kinase, gamma 2 Millipore kinase panel; conditions: Compound concentration 10.0 uM
[35] = biological target: Cyclin-dependent kinase 2/cyclin E (Homo sapiens) (UniProt P24864+P24941+O96020); experiment: cyclin-dependent kinase 2 /clyclinE Millipore kinase panel; type: protein-complex assay; conditions: Compound concentration 10.0 uM
[36] = biological target: Tyrosine-protein kinase Fer (Homo sapiens) (UniProt P16591); experiment: fer (fps/fes related) tyrosine kinase Millipore kinase panel; conditions: Compound concentration 10.0 uM
[37] = biological target: Insulin receptor (Homo sapiens) (UniProt P06213); experiment: insulin receptor (activated) Millipore kinase panel; conditions: Compound concentration 10.0 uM
[38] = species on record: Rattus norvegicus; experiment: rGABA Cerep panel; conditions: Compound concentration 10.0 uM
[39] = biological target: Serine/threonine-protein kinase Nek6 (Homo sapiens) (UniProt Q9HC98); experiment: NIMA -related kinase 6 Millipore kinase panel; conditions: Compound concentration 10.0 uM
[40] = biological target: Death-associated protein kinase 2 (Homo sapiens) (UniProt Q9UIK4); experiment: death-associated protein kinase 2 Millipore kinase panel; conditions: Compound concentration 10.0 uM
[41] = biological target: Interleukin-1 receptor-associated kinase 1 (Homo sapiens) (UniProt P51617); experiment: interleukin-1 receptor-associated kinase 1 Millipore kinase panel; conditions: Compound concentration 10.0 uM

Sequence of Phosphorylase b kinase gamma catalytic chain, liver/testis isoform (Homo sapiens) (P15735 whole entry, canonical isoform): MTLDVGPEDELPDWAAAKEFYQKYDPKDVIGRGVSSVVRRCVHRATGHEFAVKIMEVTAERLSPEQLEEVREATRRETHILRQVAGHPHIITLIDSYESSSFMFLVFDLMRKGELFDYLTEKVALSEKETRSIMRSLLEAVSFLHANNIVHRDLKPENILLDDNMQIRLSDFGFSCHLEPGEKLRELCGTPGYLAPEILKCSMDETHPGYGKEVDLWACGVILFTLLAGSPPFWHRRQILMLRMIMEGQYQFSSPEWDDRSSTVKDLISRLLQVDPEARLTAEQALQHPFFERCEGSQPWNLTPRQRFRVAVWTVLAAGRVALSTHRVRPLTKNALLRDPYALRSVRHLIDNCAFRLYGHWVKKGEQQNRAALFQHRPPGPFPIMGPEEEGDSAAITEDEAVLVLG
Sequence of Serine/threonine-protein kinase 24 (Homo sapiens) (Q9Y6E0 whole entry, looked up): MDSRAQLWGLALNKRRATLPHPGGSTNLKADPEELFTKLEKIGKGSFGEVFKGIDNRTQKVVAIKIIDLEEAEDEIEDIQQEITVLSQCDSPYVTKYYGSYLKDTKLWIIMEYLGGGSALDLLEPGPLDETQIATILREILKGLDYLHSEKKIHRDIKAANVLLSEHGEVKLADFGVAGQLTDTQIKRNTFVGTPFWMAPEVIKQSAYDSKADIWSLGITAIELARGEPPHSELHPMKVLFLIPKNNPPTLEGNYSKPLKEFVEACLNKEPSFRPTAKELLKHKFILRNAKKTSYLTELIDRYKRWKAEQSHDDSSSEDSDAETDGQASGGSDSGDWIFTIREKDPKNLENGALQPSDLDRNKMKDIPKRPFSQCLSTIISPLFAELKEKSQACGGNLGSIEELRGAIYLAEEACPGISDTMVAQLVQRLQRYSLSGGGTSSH
Sequence of Insulin-like growth factor 1 receptor (Homo sapiens) (P08069 31-736 limits assumed): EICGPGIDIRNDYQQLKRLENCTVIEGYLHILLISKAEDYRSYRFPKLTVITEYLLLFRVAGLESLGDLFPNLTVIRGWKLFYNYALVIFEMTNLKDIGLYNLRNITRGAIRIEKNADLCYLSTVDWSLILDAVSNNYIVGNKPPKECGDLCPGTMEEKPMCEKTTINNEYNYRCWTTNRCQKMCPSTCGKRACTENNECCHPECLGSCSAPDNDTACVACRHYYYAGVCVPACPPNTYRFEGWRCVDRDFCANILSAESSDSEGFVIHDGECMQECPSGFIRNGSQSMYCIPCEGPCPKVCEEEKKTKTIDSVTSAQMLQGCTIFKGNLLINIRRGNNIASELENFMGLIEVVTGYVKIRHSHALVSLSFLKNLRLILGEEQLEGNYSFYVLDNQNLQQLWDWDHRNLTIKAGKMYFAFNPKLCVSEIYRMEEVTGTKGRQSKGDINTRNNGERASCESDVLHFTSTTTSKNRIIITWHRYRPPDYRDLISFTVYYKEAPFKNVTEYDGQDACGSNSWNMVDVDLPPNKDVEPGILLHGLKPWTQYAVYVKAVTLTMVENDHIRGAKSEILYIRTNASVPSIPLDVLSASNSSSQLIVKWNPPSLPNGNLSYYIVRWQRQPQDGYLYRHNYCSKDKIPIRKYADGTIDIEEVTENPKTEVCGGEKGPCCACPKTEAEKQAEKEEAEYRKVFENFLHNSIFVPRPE
Sequence of Insulin-like growth factor 1 receptor (Homo sapiens) (P08069 741-1367 limits assumed): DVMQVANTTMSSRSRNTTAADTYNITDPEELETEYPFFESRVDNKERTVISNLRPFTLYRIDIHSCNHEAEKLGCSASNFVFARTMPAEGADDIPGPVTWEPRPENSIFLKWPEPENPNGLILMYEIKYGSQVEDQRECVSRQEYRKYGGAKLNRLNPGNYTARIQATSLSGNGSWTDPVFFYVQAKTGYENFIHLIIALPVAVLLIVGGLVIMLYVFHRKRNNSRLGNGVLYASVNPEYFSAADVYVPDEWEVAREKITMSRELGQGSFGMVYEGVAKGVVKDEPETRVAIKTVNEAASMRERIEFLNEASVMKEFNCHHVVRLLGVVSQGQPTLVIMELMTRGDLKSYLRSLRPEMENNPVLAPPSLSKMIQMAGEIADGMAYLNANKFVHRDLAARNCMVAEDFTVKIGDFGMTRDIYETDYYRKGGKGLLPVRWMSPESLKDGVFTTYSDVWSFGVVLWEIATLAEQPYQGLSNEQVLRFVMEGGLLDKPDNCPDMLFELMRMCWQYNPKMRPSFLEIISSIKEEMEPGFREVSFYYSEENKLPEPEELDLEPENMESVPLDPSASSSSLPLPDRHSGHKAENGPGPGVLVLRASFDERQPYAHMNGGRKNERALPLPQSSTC
Sequence of C-X-C chemokine receptor type 2 (Homo sapiens) (P25025 whole entry): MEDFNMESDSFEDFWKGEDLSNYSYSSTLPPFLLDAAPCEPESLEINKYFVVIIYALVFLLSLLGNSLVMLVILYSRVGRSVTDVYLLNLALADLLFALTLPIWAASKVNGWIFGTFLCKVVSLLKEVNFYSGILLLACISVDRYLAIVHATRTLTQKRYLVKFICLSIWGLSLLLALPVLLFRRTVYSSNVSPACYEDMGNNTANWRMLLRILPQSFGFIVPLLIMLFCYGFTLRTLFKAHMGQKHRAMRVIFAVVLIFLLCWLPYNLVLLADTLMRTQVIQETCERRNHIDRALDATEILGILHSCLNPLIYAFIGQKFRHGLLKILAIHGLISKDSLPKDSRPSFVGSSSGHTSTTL
Sequence of Protein kinase C beta type (Homo sapiens) (P05771 2-671 limits assumed): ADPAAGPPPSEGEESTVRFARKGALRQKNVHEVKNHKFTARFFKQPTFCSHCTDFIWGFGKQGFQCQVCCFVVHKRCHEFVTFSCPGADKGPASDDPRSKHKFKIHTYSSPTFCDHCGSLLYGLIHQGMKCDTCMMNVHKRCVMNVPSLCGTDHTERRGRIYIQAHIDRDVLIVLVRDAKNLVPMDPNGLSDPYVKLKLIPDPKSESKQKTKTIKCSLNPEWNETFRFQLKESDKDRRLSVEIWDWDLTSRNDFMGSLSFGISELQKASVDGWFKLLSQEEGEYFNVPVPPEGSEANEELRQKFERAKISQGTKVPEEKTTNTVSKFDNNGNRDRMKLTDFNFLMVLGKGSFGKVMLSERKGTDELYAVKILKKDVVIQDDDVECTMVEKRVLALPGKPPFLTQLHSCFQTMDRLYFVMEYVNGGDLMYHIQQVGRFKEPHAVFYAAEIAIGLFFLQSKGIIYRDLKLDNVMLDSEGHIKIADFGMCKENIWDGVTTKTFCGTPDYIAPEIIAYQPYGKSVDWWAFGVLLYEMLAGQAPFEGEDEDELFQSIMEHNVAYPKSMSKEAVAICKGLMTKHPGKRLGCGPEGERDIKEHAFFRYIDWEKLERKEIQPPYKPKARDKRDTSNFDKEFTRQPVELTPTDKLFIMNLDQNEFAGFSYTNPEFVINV
Sequence of Insulin receptor (Homo sapiens) (P06213 28-758 limits assumed): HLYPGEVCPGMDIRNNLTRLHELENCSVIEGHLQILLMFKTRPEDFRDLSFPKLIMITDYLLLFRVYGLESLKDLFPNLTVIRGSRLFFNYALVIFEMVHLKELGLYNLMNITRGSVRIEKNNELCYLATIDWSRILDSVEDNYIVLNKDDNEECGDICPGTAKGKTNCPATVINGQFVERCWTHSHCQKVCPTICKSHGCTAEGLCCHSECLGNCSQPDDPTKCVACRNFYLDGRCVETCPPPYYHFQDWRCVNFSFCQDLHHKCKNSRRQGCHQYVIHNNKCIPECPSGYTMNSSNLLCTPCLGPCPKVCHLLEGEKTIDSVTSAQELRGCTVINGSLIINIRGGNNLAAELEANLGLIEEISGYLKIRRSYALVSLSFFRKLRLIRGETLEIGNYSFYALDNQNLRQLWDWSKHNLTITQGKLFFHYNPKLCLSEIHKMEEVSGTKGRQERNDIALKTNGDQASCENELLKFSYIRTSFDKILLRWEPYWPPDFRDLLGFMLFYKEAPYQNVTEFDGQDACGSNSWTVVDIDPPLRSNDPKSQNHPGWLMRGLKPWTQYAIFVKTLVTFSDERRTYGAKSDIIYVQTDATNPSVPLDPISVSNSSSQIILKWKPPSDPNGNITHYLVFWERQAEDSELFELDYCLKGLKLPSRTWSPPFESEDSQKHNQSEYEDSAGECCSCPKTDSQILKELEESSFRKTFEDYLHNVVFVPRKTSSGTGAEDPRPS
Sequence of Insulin receptor (Homo sapiens) (P06213 763-1382 limits assumed): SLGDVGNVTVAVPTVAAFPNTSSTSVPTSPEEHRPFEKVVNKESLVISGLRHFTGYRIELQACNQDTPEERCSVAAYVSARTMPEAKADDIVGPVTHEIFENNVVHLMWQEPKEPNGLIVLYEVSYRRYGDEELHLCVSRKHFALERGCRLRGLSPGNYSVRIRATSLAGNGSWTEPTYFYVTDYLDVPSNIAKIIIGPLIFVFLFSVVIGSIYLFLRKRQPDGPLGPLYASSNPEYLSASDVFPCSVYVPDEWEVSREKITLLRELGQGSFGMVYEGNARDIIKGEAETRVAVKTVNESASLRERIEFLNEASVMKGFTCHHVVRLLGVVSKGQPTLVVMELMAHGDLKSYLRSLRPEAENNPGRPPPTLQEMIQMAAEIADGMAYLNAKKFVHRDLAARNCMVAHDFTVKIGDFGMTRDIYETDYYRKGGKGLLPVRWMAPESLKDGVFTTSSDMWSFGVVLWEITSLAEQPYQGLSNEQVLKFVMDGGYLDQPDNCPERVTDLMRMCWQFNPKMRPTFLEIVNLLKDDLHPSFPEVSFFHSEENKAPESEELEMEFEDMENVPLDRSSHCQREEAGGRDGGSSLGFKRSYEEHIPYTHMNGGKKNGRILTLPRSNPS

SMILES: COCCc1ccc(-c2c(C)nc3c(N4CCOCC4)ccnn23)cn1 [JNJ-42396302]
- inhibition [1]: 1%
- inhibition [2]: 3%
- inhibition [3]: 0%
- effect [4]: 6.95%
- inhibition [5]: -4%
- effect [6]: 41.5%
- inhibition [7]: 9%
- effect [8]: -2.05%
- inhibition [9]: 2%
- inhibition [10]: 4%
- inhibition [11]: 35%
- inhibition [12]: 2%
- Ki [13]: 49 µM
- inhibition [14]: -7%
- inhibition [15]: -4%
- inhibition [16]: 1%
- inhibition [17]: 3%
- effect [18]: -2.55%
- inhibition [19]: 6%
- inhibition [20]: 11%
- effect [21]: 5.15%
- effect [22]: 3.95%
- effect [23]: -9.45%
- inhibition [24]: -8%
- inhibition [25]: -5%
- inhibition [26]: -6%
- effect [27]: 3.35%
- inhibition [28]: -6%
- inhibition [29]: -2%
- effect [30]: 13.6%
- inhibition [31]: 5.53%
- Ki [32]: 8.5 µM
- inhibition [33]: -1%
- inhibition [34]: -3%
- inhibition [35]: 1%
- inhibition [36]: 0%
- inhibition [37]: -2%
- effect [38]: 21.1%
- inhibition [39]: 1%
- inhibition [40]: -1%
- inhibition [41]: -3%

— ChEMBL document CHEMBL4800727 (2021)
